Test system: Expi293 cells transfected with His-Halotag
Experiment: Library cell penetration assay, cell crash method (Example 6)
Assay type: in vitro ADME, human
Procedure: Animal cells (e.g., Expi293 cells or human HEK 293 cells) were seeded in tissue culture plates and cultured in Opti-MEM media. The cells were set in PETG flasks at a concentration of 6×10^5 cells/mL and a volume of 30 mL. The cell viability was checked to be above 90-93%. The flasks were placed in a shaking incubator at 300 rpm in 8% CO2.
After 24 hours of incubation, for each flask, one 1.5-mL Lo-bind tube and one 2-mL Lo-Bind tube were prepared. In the 1.5-mL tube, 30 μg of polyhistidine-tagged halotag (His-Halotag) plasmid and Opti-MEM media were added to provide a 1-mL mixture. In the 2-mL Lo-Bind tube, 60 μL of ExpiFectamine and 940 μL of Opti-MEM were added. After 5 minutes, the plasmid/Opti-MEM mixture was added to the ExpiFectamine/Opti-MEM mixture. The combined mixture was placed in an incubator at room temperature for 20 minutes, which was subsequently added to the flask.
After 48 hours of transfection, the transfected cells were checked for viability (90% or higher). The transfected cells were transferred to a protein Lo-Bind Eppendorf 96-well deep well plate (1000 μL), where each well contained 1 million cells in 500 μL of Expi293 media.
Solutions of candidate compounds, either individual peptides or peptides from a peptide library (DPLs), were received at a stock concentration of 10 mM and diluted in DMSO and kept in a “Source Plate”. For DPLs, the peptide concentration in the “Source Plate” was 1 mM, whereas for individual peptides, the concentration was either 100 μM (for a final concentration of 100 nM) or 10 μM (for a final concentration of 10 nM). […] of the DPL or individual peptide solution was added in triplicates to the 96-well plate. The cells were kept in a shaking incubator at 300 rpm and 37 ° C., 8% CO2 overnight for about 18-20 hours.
The following day, one of the following two methods was performed: i) capture beads method or ii) cell crash method.
Cell crash method: the 96-well plate was placed in the centrifuge at 300 g for 5 minutes. 720 μL of the supernatant was removed. The cells were resuspended in residual 200 μL of media. The suspensions were transferred to a 96-well v-bottom plate, which was placed in the centrifuge at 300 g for an additional 5 minutes. All remaining media was removed. The cell pellets were washed with 200 μL of PBS, mixed and placed back in the centrifuge at 300 g and 4 ° C. for an additional 5 minutes. The supernatant was removed and 80 μL of PBS was added.
80 μL of eluted proteins/peptides from the capture beads method or the PBD solution from the cell crash method was transferred into a deepwell low binding plate (500 μL). 80 μL of ammonium hydroxide was added. The plate was kept on a shaker at 37 ° C. for 3 hours. The plate was dried in a speedvac overnight.
The following day, the dried cell pellet was resuspended in 70 μL of 47.5% water with 0.1% FA/47.5% ACN with 0.1% FA/10 μM pepmix (10 mM stock)/5% fresh DMSO. The mixture was let sit in the plate for 1 hour to allow the dissolution of the pellet. If the sample appeared cloudy, more resuspension solution was added (50 μL at a time). 50 μL was transferred directly to the mass spec plate and the plate was sealed with the 384-well plate seal.
Once all samples were added (including cell free), the plate was placed in an autosampler of a mass spectrometer. For the mass spectrometry analysis, methods from example 1 were employed.
Results from certain assessment were presented blow. Cell crash method was utilized. Mass Shifted Peptide Theoretical Max signal is signal of an agent comprising —OH obtained when using the DhaA to convert input agent comprising —Cl into product agent comprising —OH form without involving cells (multiple agents may be converted simultaneously; in some embodiments, can be performed library by library). In some embodiments, each library pool plus positive and negative references was tested in a single well, which in some cases contain about a million or so cells. […]

[1] = Mass Shifted Peptide Signal in Cells divided by Theoretical Max Signal per replicate pair, averaged
[2] = library pool tested as mixture, MS signal of unconverted —Cl agent
[3] = library pool tested as mixture, MS signal of —OH agent
[4] = MS signal of unconverted —Cl agent from cells, library pool or individual peptide
[5] = MS signal of —OH agent from cells, library pool or individual peptide
[6] = Mass Shifted Peptide Signal in Cells divided by Mass Shifted Peptide Theoretical Max Signal, averaged across replicates

CNC(=O)[C@H](C)NC(=O)[C@H](C)NC(=O)[C@H](CO)NC(=O)[C@]1(C)CCCC=CCCCCCC[C@@](C)(NC(=O)[C@H](Cc2ccccc2)NC(=O)[C@@H](NC(=O)[C@H](CC(C)C)NC(=O)CCC(=O)NCCOCCOCCCCCCCl)[C@@H](C)O)C(=O)N[C@@H](CCC(=O)O)C(=O)N[C@@H](Cc2ccc(O)cc2)C(=O)N[C@@H](Cc2c[nH]c3ccccc23)C(=O)N[C@@H](C)C(=O)N[C@@H](CCC(N)=O)C(=O)N[C@@H](CC2CCC2)C(=O)N1 (single isomer, unassigned) [PEP000120, HaloTagO2-Leu-Thr-Phe-R8-Glu-Tyr-Trp-Ala-Gln-Cba-S5-Ser-Ala-Ala-NHMe]
Cell Penetration Score [1]: 757
Peptide Signal in Cells (from cells; agents comprising —Cl) [2]: 3E+05
Mass Shifted Peptide Signal in Cells [3]: 4E+07

CNC(=O)[C@H](C)NC(=O)[C@H](C)NC(=O)[C@H](CO)NC(=O)[C@]1(C)CCCC=CCCCCCC[C@@](C)(NC(=O)[C@H](Cc2ccccc2)NC(=O)[C@@H](NC(=O)[C@H](CC(C)C)NC(=O)CCC(=O)NCCOCCOCCCCCCCl)[C@@H](C)O)C(=O)N[C@@H](CCC(=O)O)C(=O)N[C@@H](Cc2ccc(O)cc2)C(=O)N[C@@H](Cc2c[nH]c3ccccc23)C(=O)N[C@@H](C)C(=O)N[C@@H](CCC(N)=O)C(=O)N[C@@H](CC2CCC2)C(=O)N1 (single isomer, unassigned) [PEP000125, HaloTagO2-Leu-Thr-Phe-R8-Glu-Tyr-Trp-Ala-Gln-Cba-S5-Ser-Ala-Ala-NHMe]
Peptide Signal in Cells (from cells; agents comprising —Cl) [4]: 4E+06
Mass Shifted Peptide Signal in Cells [5]: 5E+07
Cell Penetration Score [6]: 888

CC(C)C[C@H](NC(=O)CCC(=O)NCCOCCOCCCCCCCl)C(=O)N[C@H](C(=O)N[C@@H](Cc1ccccc1)C(=O)N[C@]1(C)CCCCCCC=CCCC[C@@](C)(C(=O)N[C@@H](CO)C(=O)N[C@@H](C)C(=O)N[C@@H](C)C(N)=O)NC(=O)[C@H](CC2CCC2)NC(=O)[C@H](CCC(N)=O)NC(=O)[C@H](C)NC(=O)[C@H](Cc2c[nH]c3ccccc23)NC(=O)[C@H](Cc2ccc(O)cc2)NC(=O)[C@H](C)NC1=O)[C@@H](C)O [PEP000116, HaloTagO2-Leu-Thr-Phe-R8-Ala-Tyr-Trp-Ala-Gln-Cba-S5-Ser-Ala-Ala-NH2]
Cell Penetration Score [1]: 475
Peptide Signal in Cells (from cells; agents comprising —Cl) [2]: 4E+07
Mass Shifted Peptide Signal in Cells [3]: 4E+07

CC(C)C[C@H](NC(=O)CCC(=O)NCCOCCOCCCCCCCl)C(=O)N[C@H](C(=O)N[C@@H](Cc1ccccc1)C(=O)N[C@]1(C)CCCCCCC=CCCC[C@@](C)(C(=O)N[C@@H](CO)C(=O)N[C@@H](C)C(=O)N[C@@H](C)C(N)=O)NC(=O)[C@H](CC2CCC2)NC(=O)[C@H](CCC(N)=O)NC(=O)[C@H](C)NC(=O)[C@H](Cc2c[nH]c3ccccc23)NC(=O)[C@H](Cc2ccc(O)cc2)NC(=O)[C@H](CCC(=O)O)NC1=O)[C@@H](C)O [PEP000117, HaloTagO2-Leu-Thr-Phe-R8-Glu-Tyr-Trp-Ala-Gln-Cba-S5-Ser-Ala-Ala-NH2]
Cell Penetration Score [1]: 1141
Peptide Signal in Cells (from cells; agents comprising —Cl) [2]: 1E+05
Mass Shifted Peptide Signal in Cells [3]: 8E+07

CC(C)C[C@H](NC(=O)CCC(=O)NCCOCCOCCCCCCCl)C(=O)N[C@H](C(=O)N[C@@H](Cc1ccccc1)C(=O)N[C@]1(C)CCCCCCC=CCCC[C@@](C)(C(=O)N[C@@H](CO)C(=O)N[C@@H](C)C(=O)N[C@@H](C)C(N)=O)NC(=O)[C@H](CC2CCC2)NC(=O)[C@H](CCC(N)=O)NC(=O)[C@H](C)NC(=O)[C@H](Cc2c[nH]c3ccccc23)NC(=O)[C@H](Cc2ccc(O)cc2)NC(=O)[C@H]([C@@H](C)O)NC1=O)[C@@H](C)O [PEP000118, HaloTagO2-Leu-Thr-Phe-R8-Thr-Tyr-Trp-Ala-Gln-Cba-S5-Ser-Ala-Ala-NH2]
Cell Penetration Score [1]: 536
Peptide Signal in Cells (from cells; agents comprising —Cl) [2]: 4E+07
Mass Shifted Peptide Signal in Cells [3]: 4E+07

CNC(=O)[C@H](C)NC(=O)[C@H](C)NC(=O)[C@H](CO)NC(=O)[C@]1(C)CCCC=CCCCCCC[C@@](C)(NC(=O)[C@H](Cc2ccccc2)NC(=O)[C@@H](NC(=O)[C@H](CC(C)C)NC(=O)CCC(=O)NCCOCCOCCCCCCCl)[C@@H](C)O)C(=O)N[C@@H](C)C(=O)N[C@@H](Cc2ccc(O)cc2)C(=O)N[C@@H](Cc2c[nH]c3ccccc23)C(=O)N[C@@H](C)C(=O)N[C@@H](CCC(N)=O)C(=O)N[C@@H](CC2CCC2)C(=O)N1 [PEP000119, HaloTagO2-Leu-Thr-Phe-R8-Ala-Tyr-Trp-Ala-Gln-Cba-S5-Ser-Ala-Ala-NHMe]
Cell Penetration Score [1]: 304
Peptide Signal in Cells (from cells; agents comprising —Cl) [2]: 1E+07
Mass Shifted Peptide Signal in Cells [3]: 2E+07

CNC(=O)[C@H](C)NC(=O)[C@H](C)NC(=O)[C@H](CO)NC(=O)[C@]1(C)CCCC=CCCCCCC[C@@](C)(NC(=O)[C@H](Cc2ccccc2)NC(=O)[C@@H](NC(=O)[C@H](CC(C)C)NC(=O)CCC(=O)NCCOCCOCCCCCCCl)[C@@H](C)O)C(=O)N[C@@H]([C@@H](C)O)C(=O)N[C@@H](Cc2ccc(O)cc2)C(=O)N[C@@H](Cc2c[nH]c3ccccc23)C(=O)N[C@@H](C)C(=O)N[C@@H](CCC(N)=O)C(=O)N[C@@H](CC2CCC2)C(=O)N1 [PEP000121, HaloTagO2-Leu-Thr-Phe-R8-Thr-Tyr-Trp-Ala-Gln-Cba-S5-Ser-Ala-Ala-NHMe]
Cell Penetration Score [1]: 401
Peptide Signal in Cells (from cells; agents comprising —Cl) [2]: 1E+07
Mass Shifted Peptide Signal in Cells [3]: 2E+07

CC(C)C[C@H](NC(=O)CCC(=O)NCCOCCOCCCCCCCl)C(=O)N[C@H](C(=O)N[C@@H](Cc1ccccc1)C(=O)N[C@]1(C)CCCCCCC=CCCC[C@@](C)(C(=O)N[C@@H](CO)C(=O)N[C@@H](C)C(=O)N[C@@H](C)C(N)=O)NC(=O)[C@H](CC2CCC2)NC(=O)[C@H](C)NC(=O)[C@H](C)NC(=O)[C@H](Cc2c[nH]c3ccccc23)NC(=O)[C@H](Cc2ccc(O)cc2)NC(=O)[C@H](CCC(=O)O)NC1=O)[C@@H](C)O [PEP000122, HaloTagO2-Leu-Thr-Phe-R8-Glu-Tyr-Trp-Ala-Ala-Cba-S5-Ser-Ala-Ala-NH2]
Cell Penetration Score [1]: 1188
Peptide Signal in Cells (from cells; agents comprising —Cl) [2]: 8E+06
Mass Shifted Peptide Signal in Cells [3]: 9E+07

CC(C)C[C@H](NC(=O)CCC(=O)NCCOCCOCCCCCCCl)C(=O)N[C@H](C(=O)N[C@@H](Cc1ccccc1)C(=O)N[C@]1(C)CCCCCCC=CCCC[C@@](C)(C(=O)N[C@@H](CO)C(=O)N[C@@H](C)C(=O)N[C@@H](C)C(N)=O)NC(=O)[C@H](CC2CCC2)NC(=O)[C@H]([C@@H](C)O)NC(=O)[C@H](C)NC(=O)[C@H](Cc2c[nH]c3ccccc23)NC(=O)[C@H](Cc2ccc(O)cc2)NC(=O)[C@H](CCC(=O)O)NC1=O)[C@@H](C)O [PEP000123, HaloTagO2-Leu-Thr-Phe-R8-Glu-Tyr-Trp-Ala-Thr-Cba-S5-Ser-Ala-Ala-NH2]
Peptide Signal in Cells (from cells; agents comprising —Cl) [4]: 1E+07
Mass Shifted Peptide Signal in Cells [5]: 9E+07
Cell Penetration Score [6]: 1083

CNC(=O)[C@H](C)NC(=O)[C@H](C)NC(=O)[C@H](CO)NC(=O)[C@]1(C)CCCC=CCCCCCC[C@@](C)(NC(=O)[C@H](Cc2ccccc2)NC(=O)[C@@H](NC(=O)[C@H](CC(C)C)NC(=O)CCC(=O)NCCOCCOCCCCCCCl)[C@@H](C)O)C(=O)N[C@@H](CCC(=O)O)C(=O)N[C@@H](Cc2ccc(O)cc2)C(=O)N[C@@H](Cc2c[nH]c3ccccc23)C(=O)N[C@@H](C)C(=O)N[C@@H](C)C(=O)N[C@@H](CC2CCC2)C(=O)N1 [PEP000124, HaloTagO2-Leu-Thr-Phe-R8-Glu-Tyr-Trp-Ala-Ala-Cba-S5-Ser-Ala-Ala-NHMe]
Peptide Signal in Cells (from cells; agents comprising —Cl) [4]: 3E+06
Mass Shifted Peptide Signal in Cells [5]: 5E+07
Cell Penetration Score [6]: 745

Reference: US20230046728A1, “TECHNOLOGIES USEFUL FOR ASSESSING PERMEABILITY” (FOG PHARMACEUTICALS, INC., priority 2019, published 2023)
